Experimental data from US8952024B2, “Herbicidal pyrimidone derivatives” (E I du Pont de Nemours and Company, priority 2009, dated 2015).

Assays:
Test in all cases: Test D pre-/postemergence plant response
Assay type in all cases: in vivo
[1] = tested on: chickweed (common chickweed, Stellaria media); conditions: Postemergence
Summary of the method: (§1)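 Seeds were sown in a loam–sand blend and sprayed preemergence with compound in a non-phytotoxic solvent mixture containing surfactant; plants at 2–18 cm (1- to 4-leaf stage) received the same formulation postemergence. After 14 to 21 days in a greenhouse, injury was rated visually against untreated controls (0 = no effect, 100 = complete control).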

[2] = tested on: johnsongrass (Sorghum halepense)
Summary of the method: as §1

[3] = tested on: quackgrass (Elytrigia repens)
Summary of the method: as §1

[4] = tested on: green foxtail (Setaria viridis)
Summary of the method: as §1

[5] = tested on: purslane (common purslane, Portulaca oleracea)
Summary of the method: as §1

[6] = tested on: itchgrass (Rottboellia cochinchinensis)
Summary of the method: as §1

[7] = tested on: prickly sida (Sida spinosa)
Summary of the method: as §1

[8] = tested on: dallisgrass (Paspalum dilatatum)
Summary of the method: as §1

[9] = tested on: Italian ryegrass (Lolium multiflorum)
Summary of the method: as §1

[10] = tested on: ragweed (common ragweed, Ambrosia elatior)
Summary of the method: as §1

[11] = tested on: sandbur (southern sandbur, Cenchrus echinatus)
Summary of the method: as §1

[12] = tested on: guineagrass (Panicum maximum)
Summary of the method: as §1

[13] = tested on: field bindweed (Convolvulus arvensis)
Summary of the method: as §1

[14] = tested on: black mustard (Brassica nigra)
Summary of the method: as §1

[15] = tested on: mallow (common mallow, Malva sylvestris)
Summary of the method: as §1

[16] = tested on: barnyardgrass (Echinochloa crus-galli)
Summary of the method: as §1

[17] = tested on: sowthistle (common sowthistle, Sonchus oleraceous)
Summary of the method: as §1

[18] = tested on: groundsel (common groundsel, Senecio vulgaris); conditions: Postemergence
Summary of the method: as §1

[19] = tested on: dayflower (Virginia (VA) dayflower, Commelina virginica)
Summary of the method: as §1

[20] = 125 g ai/ha, scale 0 to 100 (0 no effect, 100 complete control)
[21] = Postemergence, 31 g ai/ha, scale 0 to 100
[22] = Postemergence, 62 g ai/ha, scale 0 to 100 (0 no effect, 100 complete control)
[23] = Postemergence, 125 g ai/ha, scale 0 to 100 (0 no effect, 100 complete control)
[24] = Postemergence, 16 g ai/ha, scale 0 to 100
[25] = Preemergence, 16 g ai/ha, scale 0 to 100, 0 no effect, 100 complete control
[26] = Preemergence, 31 g ai/ha, scale 0 to 100 (0 no effect, 100 complete control)
[27] = Preemergence, 62 g ai/ha, scale 0 to 100
[28] = Preemergence, 125 g ai/ha, scale 0 to 100
[29] = Postemergence, 31 g ai/ha, scale 0 to 100 (0 no effect, 100 complete control)

COCCn1c(-c2cccc(C)c2)ncc(C(=O)C2=C(O)C3CCC(C3)C2=O)c1=O (centres unmarked) [Compound 233]
75: Plant response rating, Ragweed [10, 21] | Plant response rating, Ragweed [10, 22] | Plant response rating, Sandbur [11, 23] | Plant response rating, Barnyardgrass [16, 29]
90: Plant response rating, Sowthistle [17, 24] | Plant response rating, Groundsel ([18]; 62 g ai/ha, scale 0 to 100 (0 no effect, 100 complete control))
98: Plant response rating, Ragweed [10, 23] | Plant response rating, Ragweed [10, 28]
60: Plant response rating, Chickweed [1, 20] | Plant response rating, Prickly Sida [7, 23] | Plant response rating, Mallow [15, 28] | Plant response rating, Dayflower, VA [19, 23]
100: Plant response rating, Purslane [5, 27] | Plant response rating, Purslane [5, 28] | Plant response rating, Black Mustard [14, 23] | Plant response rating, Sowthistle [17, 21] | Plant response rating, Sowthistle [17, 23] | Plant response rating, Sowthistle [17, 28] | Plant response rating, Groundsel [18, 20] | Plant response rating, Dayflower, VA [19, 27] | Plant response rating, Dayflower, VA [19, 28]
15: Plant response rating, Dayflower, VA [19, 24]
5: Plant response rating, Foxtail, Green [4, 24] | Plant response rating, Ryegrass, Italian [9, 22] | Plant response rating, Ryegrass, Italian [9, 23] | Plant response rating, Barnyardgrass [16, 27]
25: Plant response rating, Quackgrass [3, 23]
40: Plant response rating, Purslane [5, 23] | Plant response rating, Guineagrass [12, 22] | Plant response rating, Barnyardgrass [16, 28]
30: Plant response rating, Foxtail, Green [4, 22] | Plant response rating, Purslane [5, 21] | Plant response rating, Purslane [5, 22] | Plant response rating, Purslane [5, 24] | Plant response rating, Prickly Sida [7, 24] | Plant response rating, Sandbur [11, 24] | Plant response rating, Guineagrass [12, 21] | Plant response rating, Groundsel ([18]; 16 g ai/ha, scale 0 to 100)
65: Plant response rating, Johnsongrass [2, 28] | Plant response rating, Itchgrass [6, 21] | Plant response rating, Ragweed [10, 24] | Plant response rating, Sandbur [11, 21] | Plant response rating, Black Mustard [14, 28] | Plant response rating, Barnyardgrass [16, 24]
10: Plant response rating, Quackgrass [3, 22] | Plant response rating, Foxtail, Green [4, 21] | Plant response rating, Dallisgrass [8, 21] | Plant response rating, Dallisgrass [8, 22] | Plant response rating, Field Bindweed [13, 24]
35: Plant response rating, Johnsongrass [2, 21] | Plant response rating, Foxtail, Green [4, 23] | Plant response rating, Dallisgrass [8, 23] | Plant response rating, Dallisgrass [8, 28] | Plant response rating, Dayflower, VA [19, 21] | Plant response rating, Dayflower, VA [19, 22]
0: Plant response rating, Johnsongrass [2, 25] | Plant response rating, Johnsongrass [2, 26] | Plant response rating, Quackgrass [3, 21] | Plant response rating, Quackgrass [3, 24] | Plant response rating, Quackgrass [3, 25] | Plant response rating, Quackgrass [3, 26] | Plant response rating, Quackgrass [3, 28] | Plant response rating, Foxtail, Green [4, 25] | Plant response rating, Foxtail, Green [4, 26] | Plant response rating, Foxtail, Green [4, 27] | Plant response rating, Foxtail, Green [4, 28] | Plant response rating, Purslane [5, 25] | Plant response rating, Purslane [5, 26] | Plant response rating, Itchgrass [6, 25] | Plant response rating, Itchgrass [6, 26] | Plant response rating, Itchgrass [6, 27] | Plant response rating, Prickly Sida [7, 25] | Plant response rating, Prickly Sida [7, 26] | Plant response rating, Prickly Sida [7, 27] | Plant response rating, Dallisgrass [8, 24] | Plant response rating, Dallisgrass [8, 25] | Plant response rating, Dallisgrass [8, 26] | Plant response rating, Dallisgrass [8, 27] | Plant response rating, Ryegrass, Italian [9, 21] | Plant response rating, Ryegrass, Italian [9, 24] | Plant response rating, Ryegrass, Italian [9, 25] | Plant response rating, Ryegrass, Italian [9, 26] | Plant response rating, Sandbur [11, 25] | Plant response rating, Sandbur [11, 26] | Plant response rating, Guineagrass [12, 25] | Plant response rating, Guineagrass [12, 26] | Plant response rating, Guineagrass [12, 27] | Plant response rating, Guineagrass [12, 28] | Plant response rating, Field Bindweed [13, 25] | Plant response rating, Field Bindweed [13, 26] | Plant response rating, Black Mustard [14, 25] | Plant response rating, Black Mustard [14, 26] | Plant response rating, Mallow [15, 21] | Plant response rating, Mallow [15, 22] | Plant response rating, Mallow [15, 23] | Plant response rating, Mallow [15, 24] | Plant response rating, Mallow [15, 25] | Plant response rating, Mallow [15, 26] | Plant response rating, Mallow [15, 27] | Plant response rating, Barnyardgrass [16, 25] | Plant response rating, Barnyardgrass [16, 26] | Plant response rating, Sowthistle [17, 25] | Plant response rating, Dayflower, VA [19, 25]
50: Plant response rating, Chickweed ([1]; 31 g ai/ha, scale 0 to 100) | Plant response rating, Johnsongrass [2, 22] | Plant response rating, Johnsongrass [2, 23] | Plant response rating, Itchgrass [6, 24] | Plant response rating, Prickly Sida [7, 21] | Plant response rating, Prickly Sida [7, 22] | Plant response rating, Ragweed [10, 25] | Plant response rating, Guineagrass [12, 23] | Plant response rating, Field Bindweed [13, 21] | Plant response rating, Field Bindweed [13, 22] | Plant response rating, Black Mustard [14, 29] | Plant response rating, Black Mustard [14, 22] | Plant response rating, Sowthistle [17, 26] | Plant response rating, Groundsel ([18]; 31 g ai/ha, scale 0 to 100)
95: Plant response rating, Ragweed ([10]; Preemergence, rate not given, scale 0 to 100, 0 no effect, 100 complete control)
20: Plant response rating, Johnsongrass [2, 24] | Plant response rating, Johnsongrass [2, 27] | Plant response rating, Itchgrass [6, 28] | Plant response rating, Ryegrass, Italian [9, 28] | Plant response rating, Guineagrass [12, 24] | Plant response rating, Black Mustard [14, 24] | Plant response rating, Black Mustard [14, 27]
80: Plant response rating, Itchgrass [6, 23] | Plant response rating, Dayflower, VA [19, 26]
85: Plant response rating, Sandbur [11, 28] | Plant response rating, Field Bindweed [13, 27] | Plant response rating, Field Bindweed [13, 28] | Plant response rating, Barnyardgrass [16, 22] | Plant response rating, Barnyardgrass [16, 23]
70: Plant response rating, Itchgrass [6, 22] | Plant response rating, Prickly Sida [7, 28] | Plant response rating, Ragweed [10, 26] | Plant response rating, Sandbur [11, 22] | Plant response rating, Field Bindweed [13, 23]
